For test [1], the target named is T1, STAT6 (Homo sapiens, UniProt P42226).
T1 construct: stably transfected HaCaT keratinocyte cell line, which expresses NanoLuc luciferase reporter gene under the transcriptional control of the STAT6 responsive promoter; endogenous in cells; host or cells: HaCaT keratinocyte reporter cell line (stably transfected with a NanoLuc reporter)
T1 sequence (P42226 1-847): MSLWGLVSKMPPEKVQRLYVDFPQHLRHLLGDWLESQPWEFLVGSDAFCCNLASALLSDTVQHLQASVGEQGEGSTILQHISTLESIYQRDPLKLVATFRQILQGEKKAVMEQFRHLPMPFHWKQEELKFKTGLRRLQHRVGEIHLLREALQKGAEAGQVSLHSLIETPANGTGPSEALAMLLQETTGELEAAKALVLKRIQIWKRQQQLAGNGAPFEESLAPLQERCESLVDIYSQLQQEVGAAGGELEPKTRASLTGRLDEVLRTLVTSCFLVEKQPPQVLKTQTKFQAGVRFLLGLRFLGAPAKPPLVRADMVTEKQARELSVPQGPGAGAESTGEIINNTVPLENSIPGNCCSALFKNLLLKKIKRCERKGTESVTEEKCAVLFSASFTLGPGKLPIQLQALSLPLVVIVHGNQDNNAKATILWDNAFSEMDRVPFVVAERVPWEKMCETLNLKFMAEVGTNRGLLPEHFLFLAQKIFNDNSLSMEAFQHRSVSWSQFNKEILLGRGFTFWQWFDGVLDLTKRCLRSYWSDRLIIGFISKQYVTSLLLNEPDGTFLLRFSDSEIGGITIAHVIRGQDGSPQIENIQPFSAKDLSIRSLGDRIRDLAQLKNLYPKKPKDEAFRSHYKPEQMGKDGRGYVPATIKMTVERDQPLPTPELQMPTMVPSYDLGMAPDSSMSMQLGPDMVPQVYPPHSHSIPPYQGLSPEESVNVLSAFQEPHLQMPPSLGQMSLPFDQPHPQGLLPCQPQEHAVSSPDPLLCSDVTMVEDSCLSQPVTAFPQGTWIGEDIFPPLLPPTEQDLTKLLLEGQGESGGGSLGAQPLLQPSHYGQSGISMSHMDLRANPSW
The experiment in a line: STAT6 Reporter Luciferase Assay (IL-13 stimulated HaCaT keratinocyte NanoLuc reporter cells). It counts as cell-based. As to conditions: STAT6 NanoLuc luciferase reporter, IL-13 stimulated HaCaT keratinocyte cells; read-out: Reporter EC50. In outline:
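HaCaT IL-13Ra2-promoter NanoLuc reporter; cpd 2 h 37 °C in DMEM/2% HI FBS; IL-13 0.12 nM final, 4 h; Nano-Glo luminescence.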
A general note: Reporter assays use an easily measured gene product as a stand-in for the process of interest.

Test [2] has as its system CCL17 secretion in peripheral human whole blood. As to the kind of experiment: Human Whole Blood (HWB) CCL17 TR-FRET Assay (IL-13 stimulated CCL17 secretion). It counts as cell-based. As to conditions: Homo sapiens, 48 h, inhibition of CCL17 secretion in human whole blood, 10 ng/mL IL13, 48 hours. In outline:
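Heparinized human whole blood was preincubated with compound (11-point, 3-fold series) for 2 h at 37°C, then stimulated with IL-13 (10 ng/mL final) for 48 h. Serum CCL17 was measured by TR-FRET sandwich immunoassay (665/615 nm ratio) after 16 h at room temperature, giving IC50.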
On the technique in general: TR-FRET usually uses a lanthanide donor and a delayed reading to cut background.

Bounds are passed on as bounds.

`CC[C@H]1CCC(=O)N1c1ccc(N2CCc3c(c(C(=O)NCc4ccc(NC(=O)N(C)C)cc4)nn3C(C)C)C2)nc1` [Example 79, (S)-N-(4-(3,3-dimethylureido)benzyl)-5-(5-(2-ethyl-5-oxopyrrolidin-1-yl)pyridin-2-yl)-1-isopropyl-4,5,6,7-tetrahydro-1H-pyrazolo[4,3-c]pyridine-3-carboxamide]: in test [1], the EC50 amounted to 0.041 µM. In test [2], this compound registered an IC50 of 1.78 µM.
For the compound `CC(C)n1nc(C(=O)NCc2ccc(NC(=O)N(C)C)cc2)c2c1CCN(c1ccc(N3CC[C@H](F)C3=O)cn1)C2` [Example 84, (S)-N-(4-(3,3-dimethylureido)benzyl)-5-(5-(3-fluoro-2-oxopyrrolidin-1-yl)pyridin-2-yl)-1-isopropyl-4,5,6,7-tetrahydro-1H-pyrazolo[4,3-c]pyridine-3-carboxamide], in test [1], the EC50 was determined as 0.002 µM. Further, in test [2], 0.056 µM corresponded to half-maximal inhibition (IC50).
Regarding `CC(C)n1nc(C(=O)NCc2ccc(NC(=O)N(C)C)cc2)c2c1CCN(c1ccc(N3C(=O)CC[C@@H]3CO)cn1)C2` [Example 88, (R)-N-(4-(3,3-dimethylureido)benzyl)-5-(5-(2-(hydroxymethyl)-5-oxopyrrolidin-1-yl)pyridin-2-yl)-1-isopropyl-4,5,6,7-tetrahydro-1H-pyrazolo[4,3-c]pyridine-3-carboxamide], in test [1], the EC50 turned out to be 0.424 µM. Besides, half-maximal inhibition in test [2] (IC50) was put at 2.08 µM.
As for `CN(C)C(=O)Nc1ccc(CNC(=O)c2nn(CC3CC3)c3c2CN(c2ccc(C(=O)N(C)C)cn2)CC3)cc1` [Example 89, 1-(cyclopropylmethyl)-5-(5-(dimethylcarbamoyl)pyridin-2-yl)-N-(4-(3,3-dimethylureido)benzyl)-4,5,6,7-tetrahydro-1H-pyrazolo[4,3-c]pyridine-3-carboxamide], the EC50 in test [1] is 0.012 µM. In test [2], the half-inhibitory concentration (IC50) stood at 0.149 µM.
Take `CC(C)n1nc(C(=O)NCc2ccc(NC(=O)N(C)C)cc2)c2c1CCN(c1ccc(N3CC4CC4C3=O)cn1)C2` (stereo not drawn) [Example 91, N-(4-(3,3-dimethylureido)benzyl)-1-isopropyl-5-(5-(2-oxo-3-azabicyclo[3.1.0]hexan-3-yl)pyridin-2-yl)-4,5,6,7-tetrahydro-1H-pyrazolo[4,3-c]pyridine-3-carboxamide]: in test [1], the EC50 came out at 0.014 µM. Moreover, in test [2], the IC50 worked out at 0.327 µM.
In the same order, the values of `CN(C)C(=O)Nc1ccc(CNC(=O)c2nn(C3COC3)c3c2CN(c2ccc(C(=O)N(C)C)cn2)CC3)cc1` [Example 94, 5-(5-(dimethylcarbamoyl)pyridin-2-yl)-N-(4-(3,3-dimethylureido)benzyl)-1-(oxetan-3-yl)-4,5,6,7-tetrahydro-1H-pyrazolo[4,3-c]pyridine-3-carboxamide] are 0.049 µM and 0.089 µM.
Consider `CN(C)C(=O)Nc1ccc(CNC(=O)c2nn(C3CCC3)c3c2CN(c2ccc(C(=O)N(C)C)cn2)CC3)cc1` [Example 96, 1-cyclobutyl-5-(5-(dimethylcarbamoyl)pyridin-2-yl)-N-(4-(3,3-dimethylureido)benzyl)-4,5,6,7-tetrahydro-1H-pyrazolo[4,3-c]pyridine-3-carboxamide], for which, in test [1], the EC50 was determined as 0.005 µM. In test [2], this compound yielded an IC50 of 0.066 µM.
Turning to `CC(C)n1nc(C(=O)NCc2ccc(NC(=O)N(C)C)cc2)c2c1CCN(c1ccc(N3CC4(CC4)CC3=O)cn1)C2` [Example 97, N-(4-(3,3-dimethylureido)benzyl)-1-isopropyl-5-(5-(6-oxo-5-azaspiro[2.4]heptan-5-yl)pyridin-2-yl)-4,5,6,7-tetrahydro-1H-pyrazolo[4,3-c]pyridine-3-carboxamide], in test [1], the EC50 is 0.065 µM. The compound further showed an IC50 in test [2] of 3.48 µM.
For `CC(C)n1nc(C(=O)NCc2ccc(NC(=O)N(C)C)cc2)c2c1CCN(c1ccc(N3CC[C@@H](F)C3=O)cn1)C2` [Example 98, (R)-N-(4-(3,3-dimethylureido)benzyl)-5-(5-(3-fluoro-2-oxopyrrolidin-1-yl)pyridin-2-yl)-1-isopropyl-4,5,6,7-tetrahydro-1H-pyrazolo[4,3-c]pyridine-3-carboxamide], in test [1], the EC50 amounted to 0.048 µM. In test [2], this compound came in with an IC50 of 0.573 µM.
Take `CC1COC(=O)N1c1ccc(N2CCc3c(c(C(=O)NCc4ccc(NC(=O)N(C)C)cc4)nn3C(C)C)C2)nc1` (stereo not drawn) [Example 99, N-(4-(3,3-dimethylureido)benzyl)-1-isopropyl-5-(5-(4-methyl-2-oxooxazolidin-3-yl)pyridin-2-yl)-4,5,6,7-tetrahydro-1H-pyrazolo[4,3-c]pyridine-3-carboxamide]: the EC50 in test [1] was determined as 0.017 µM. The compound further yielded an IC50 in test [2] of 0.453 µM.
In the case of `CC(C)n1nc(C(=O)NCc2ccc(NC(=O)N(C)C)cc2)c2c1CCN(c1ccc(N3CCOCCC3=O)cn1)C2` [Example 100, N-(4-(3,3-dimethylureido)benzyl)-1-isopropyl-5-(5-(5-oxo-1,4-oxazepan-4-yl)pyridin-2-yl)-4,5,6,7-tetrahydro-1H-pyrazolo[4,3-c]pyridine-3-carboxamide], the EC50 in test [1] was determined as 0.174 µM. In addition, in test [2], the midpoint of inhibition, the IC50, lay at 1.8 µM.
On to `CC(C)n1nc(C(=O)NCc2ccc(NC(=O)N(C)C)cc2)c2c1CCN(c1ccc(N3CCOCC3=O)cn1)C2` [Example 103, N-(4-(3,3-dimethylureido)benzyl)-1-isopropyl-5-(5-(3-oxomorpholino)pyridin-2-yl)-4,5,6,7-tetrahydro-1H-pyrazolo[4,3-c]pyridine-3-carboxamide], for which the EC50 in test [1] was found to be 0.047 µM. This compound registered an IC50 in test [2] of 0.535 µM.
Turning to `CN(C)C(=O)Nc1ccc(CNC(=O)c2nn(C34CC(C3)C4)c3c2CN(c2ccc(C(=O)N(C)C)cn2)CC3)cc1` [Example 104, 1-(bicyclo[1.1.1]pentan-1-yl)-5-(5-(dimethylcarbamoyl)pyridin-2-yl)-N-(4-(3,3-dimethylureido)benzyl)-4,5,6,7-tetrahydro-1H-pyrazolo[4,3-c]pyridine-3-carboxamide], the concentration giving a half-maximal response (EC50) in test [1] was found to be 0.007 µM. The same compound showed an IC50 in test [2] of 0.107 µM.
In the same order, the values of `CN(C)C(=O)Nc1ccc(CNC(=O)c2nn(C)c3c2CN(c2ccc(C(=O)N(C)C)cn2)CC3(C)C)cc1` [Example 105, 5-(5-(dimethylcarbamoyl)pyridin-2-yl)-N-(4-(3,3-dimethylureido)benzyl)-1,7,7-trimethyl-4,5,6,7-tetrahydro-1H-pyrazolo[4,3-c]pyridine-3-carboxamide] are 0.003 µM and 0.021 µM.
In the case of `CN(C)C(=O)Nc1ccc(CNC(=O)c2nn(C)c3c2CN(c2ccc(C(=O)N(C)C)cn2)CC32CC2)cc1` [Example 106, 5′-(5-(dimethylcarbamoyl)pyridin-2-yl)-N-(4-(3,3-dimethylureido)benzyl)-1′-methyl-1′,4′,5′,6′-tetrahydrospiro[cyclopropane-1,7′-pyrazolo[4,3-c]pyridine]-3′-carboxamide], the EC50 in test [1] came out at 0.008 µM. Besides, the IC50 in test [2] came out at 0.049 µM.
On to `CC(C)n1nc(C(=O)NCc2ccc(NC(=O)N(C)C)cc2)c2c1CCN(c1ccc(N3CCOC3=O)cn1)C2` [Example 107, N-(4-(3,3-dimethylureido)benzyl)-1-isopropyl-5-(5-(2-oxooxazolidin-3-yl)pyridin-2-yl)-4,5,6,7-tetrahydro-1H-pyrazolo[4,3-c]pyridine-3-carboxamide], for which the EC50 in test [1] stood at 0.013 µM. Half-maximal inhibition in test [2] (IC50) required 0.219 µM.
In the case of `CC(C)n1nc(C(=O)NCc2ccc(NC(=O)N(C)C)cc2)c2c1CCN(c1ccc(-n3ccccc3=O)cn1)C2` [Example 108, N-(4-(3,3-dimethylureido)benzyl)-1-isopropyl-5-(2-oxo-2H-[1,3′-bipyridin]-6′-yl)-4,5,6,7-tetrahydro-1H-pyrazolo[4,3-c]pyridine-3-carboxamide], the EC50 in test [1] amounted to 0.03 µM. This compound displayed an IC50 in test [2] of 0.536 µM.
For the compound `CC(C)n1nc(C(=O)NCc2ccc(NC(=O)N(C)C)cc2)c2c1CCN(c1ccc(N3C(=O)C4CCC3C4)cn1)C2` (stereo not drawn) [Example 109, N-(4-(3,3-dimethylureido)benzyl)-1-isopropyl-5-(5-(3-oxo-2-azabicyclo[2.2.1]heptan-2-yl)pyridin-2-yl)-4,5,6,7-tetrahydro-1H-pyrazolo[4,3-c]pyridine-3-carboxamide], the EC50 in test [1] turned out to be 0.117 µM. The same compound had an IC50 in test [2] greater than 30 µM.

For orientation: EC50 means the concentration at which the effect is half-maximal. Broadly, the IC50 is the concentration needed to halve the response being measured. The low end stands for higher potency, the high end for lower potency.

The record behind these values is patent publication US20250320213A1, “Nitrogen-Containing Heterocyclic Compounds” (Pfizer Inc., priority 2024, published 2025).
